Data as given in US8263389B2, “Perifusion device” (Biorep Technologies, Inc., priority 2007, dated 2012).
Where no end group is shown, it is not given here.

Columns and labels:
[1] = tested on: Islet cells; assay: insulin release by perifusion of islet cells after oxygen deprivation, measured by ELISA; type: cell-based; settings: 11 mM glucose, GLP-1 in addition to 11 mM glucose, KCl
Procedure: Islet cells were compromised by depriving them from the normal oxygen concentration for 0.5, 2, 6, and 12 hours. After that, these islets were incubated in the perifusion system and exposed to substances that stimulate insulin release such as 11 mM of glucose, GLP-1 in addition to 11 mM of glucose, and potassium chloride (KCl).

[2] = tested on: human islets; assay: glucagon-insulin release from in vitro perifused human islets; type: cell-based; settings: alpha cells of perifused human islets
Procedure: FIG. 22 illustrates glucagon-insulin release from in vitro perifused human islets. This experiment was conducted to show the usefulness of the perifusion system in drug screening. Insulin and glucagon are hormones secreted from the beta and alpha cells of the islets of Langerhans. […] In the same way, any other compound's ability to influence the health or alter the behavior of the pancreatic islets can be assayed using the perifusion system of the invention.

[3] = control batch, normal culture conditions without oxygen deprivation
[4] = islets after twelve hours of incubation with low oxygen

Compound	insulin release response to stimulus [1, 3]	insulin release response to stimulus [1, 4]	glucagon release profile [2]
[Cl-].[K+] [KCl, potassium chloride]	prominent response	very small	–
GLP-1 (HAEGTFTSDVSSYLEGQAAKEFIAWLVKGR; ends and bridges not checked; UniProt P01275 98-127, looked up)	prominent response	little or no response	–
kainates	–	–	stimulated the alpha cells to produce glucagon
